Here are results for two compounds from publication PMC4770715, “LIM kinase inhibitors disrupt mitotic microtubule organization and impair tumor cell proliferation” (Oncotarget, 2015).

Assay in all cases: biochemical
Common to all, as to set-up: KINOMEscan active-site competition binding, percent of control (100 = no competition)
Common to all, as to details: competition binding, percent control

For one assay, the target named is T1, ADCK4 (Homo sapiens, UniProt Q96D53).
T1 construct: gene COQ8B
The source says: (§1) Given the potential for the use of LIMK inhibitors as cancer chemotherapeutics, a high-throughput drug discovery and medicinal chemistry program was undertaken. Details of the screening methodology and description of initial hit matter were described in [38]. […] Details of their chemical synthesis are described in Charles et al.. […] These and additional physiochemical parameters are in Supplemental Table 5. […] Kinases inhibited >25% to 50% have yellow circles, 51% to 75% have orange circles, and >76% have red circles. In each case, the size of the circle is proportional to percentage inhibition. LIMK1 and LIMK2 positions are indicated in blue. Illustration reproduced courtesy of Cell Signaling Technology, Inc. (www.cellsignal.com). B. CRT0105950 structure and kinome selectivity mapping as described above. C.

The target of a further assay is AKT2 (Homo sapiens, UniProt P31751).
Source text: as §1

The target of another assay is T2, BIKE (Homo sapiens, UniProt Q9NSY1).
T2 construct: gene BMP2K
Source text: as §1

In another assay the target is BRSK2 (Homo sapiens, UniProt Q8IWQ3).
Source text: as §1

The target of another assay is T3, CDK4-cyclinD3 (Homo sapiens, UniProt P11802).
T3 construct: cyclinD3
Source text: as §1

For a further assay, the target named is CDKL1 (Homo sapiens, UniProt Q00532).
Source text: as §1

The target of another assay is CSNK2A2 (Homo sapiens, UniProt P19784).
Source text: as §1

The target of another assay is DAPK2 (Homo sapiens, UniProt Q9UIK4).
Source text: as §1

Another assay has as its target DYRK2 (Homo sapiens, UniProt Q92630).
Source text: as §1

The target of the next assay is EGFR(G719C) (Homo sapiens, UniProt P00533, G719C).
Source text: as §1

For a further assay, the target named is EGFR(L861Q) (Homo sapiens, UniProt P00533, L861Q).
Source text: as §1

Another assay has as its target T4, HPK1 (Homo sapiens, UniProt Q92918).
T4 construct: gene MAP4K1
Source text: as §1

A further assay deals with LCK (Homo sapiens, UniProt P06239).
Source text: as §1

For a further assay, the target named is MAK (Homo sapiens, UniProt P20794).
Source text: as §1

The next assay concerns the target MAP4K2 (Homo sapiens, UniProt Q12851).
Source text: as §1

The target of a further assay is MERTK (Homo sapiens, UniProt Q12866).
Source text: as §1

In the next assay the target is T5, MRCKA (Homo sapiens, UniProt Q5VT25).
T5 construct: gene CDC42BPA
Source text: as §1

In the next assay the target is PDGFRA (Homo sapiens, UniProt P16234).
Source text: as §1

The next assay has as its target PDGFRB (Homo sapiens, UniProt P09619).
Source text: as §1

A further assay deals with PIK3CA(Q546K) (Homo sapiens, UniProt P42336, Q546K).
Source text: as §1

The next assay addresses T6, PRKR (Homo sapiens, UniProt P19525).
T6 construct: gene EIF2AK2
Source text: as §1

The target in the next assay is SIK2 (Homo sapiens, UniProt Q9H0K1).
Source text: as §1

In a further assay the target is T7, p38-gamma (Homo sapiens, UniProt P53778).
T7 construct: gene MAPK12
Source text: as §1

Chain of LCK (P06239 whole entry): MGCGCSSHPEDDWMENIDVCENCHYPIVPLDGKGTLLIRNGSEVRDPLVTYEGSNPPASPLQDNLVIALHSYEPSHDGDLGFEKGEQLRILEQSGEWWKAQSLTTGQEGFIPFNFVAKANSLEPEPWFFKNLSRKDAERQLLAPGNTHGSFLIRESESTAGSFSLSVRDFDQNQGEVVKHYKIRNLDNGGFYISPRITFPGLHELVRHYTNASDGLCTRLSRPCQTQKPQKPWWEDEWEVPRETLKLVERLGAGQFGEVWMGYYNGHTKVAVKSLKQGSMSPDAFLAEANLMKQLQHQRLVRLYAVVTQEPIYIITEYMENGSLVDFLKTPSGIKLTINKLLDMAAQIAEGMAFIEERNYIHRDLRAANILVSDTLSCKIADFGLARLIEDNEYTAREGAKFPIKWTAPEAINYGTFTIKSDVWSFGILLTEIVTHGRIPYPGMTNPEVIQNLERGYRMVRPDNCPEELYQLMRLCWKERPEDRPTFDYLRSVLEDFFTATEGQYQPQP
Chain of DAPK2 (Q9UIK4 whole entry): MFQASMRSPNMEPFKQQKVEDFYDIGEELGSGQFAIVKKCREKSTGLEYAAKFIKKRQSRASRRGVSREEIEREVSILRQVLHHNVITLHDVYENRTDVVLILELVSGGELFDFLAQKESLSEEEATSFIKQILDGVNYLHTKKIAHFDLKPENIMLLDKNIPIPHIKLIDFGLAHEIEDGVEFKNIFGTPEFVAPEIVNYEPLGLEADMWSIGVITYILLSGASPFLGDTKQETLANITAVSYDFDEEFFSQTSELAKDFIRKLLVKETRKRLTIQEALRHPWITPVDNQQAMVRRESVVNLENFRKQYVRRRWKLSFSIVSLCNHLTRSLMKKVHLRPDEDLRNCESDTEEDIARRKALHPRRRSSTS
Chain of MAK (P20794 whole entry): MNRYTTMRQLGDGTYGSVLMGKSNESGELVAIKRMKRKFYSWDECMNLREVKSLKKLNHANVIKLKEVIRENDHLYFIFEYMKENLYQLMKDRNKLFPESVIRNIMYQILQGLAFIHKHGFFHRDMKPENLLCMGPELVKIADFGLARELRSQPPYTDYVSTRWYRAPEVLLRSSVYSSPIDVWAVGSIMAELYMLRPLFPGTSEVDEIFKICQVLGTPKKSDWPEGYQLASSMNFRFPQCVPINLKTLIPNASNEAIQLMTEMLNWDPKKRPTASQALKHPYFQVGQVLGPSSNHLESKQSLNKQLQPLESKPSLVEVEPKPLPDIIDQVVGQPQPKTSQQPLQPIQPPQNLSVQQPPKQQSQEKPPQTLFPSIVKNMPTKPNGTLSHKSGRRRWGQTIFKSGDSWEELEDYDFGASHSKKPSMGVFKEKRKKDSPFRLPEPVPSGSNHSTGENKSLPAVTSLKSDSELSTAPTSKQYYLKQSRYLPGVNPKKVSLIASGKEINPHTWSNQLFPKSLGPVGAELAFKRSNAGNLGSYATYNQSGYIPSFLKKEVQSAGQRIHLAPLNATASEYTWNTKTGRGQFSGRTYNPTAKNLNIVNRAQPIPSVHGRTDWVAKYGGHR
Chain of MAP4K2 (Q12851 whole entry): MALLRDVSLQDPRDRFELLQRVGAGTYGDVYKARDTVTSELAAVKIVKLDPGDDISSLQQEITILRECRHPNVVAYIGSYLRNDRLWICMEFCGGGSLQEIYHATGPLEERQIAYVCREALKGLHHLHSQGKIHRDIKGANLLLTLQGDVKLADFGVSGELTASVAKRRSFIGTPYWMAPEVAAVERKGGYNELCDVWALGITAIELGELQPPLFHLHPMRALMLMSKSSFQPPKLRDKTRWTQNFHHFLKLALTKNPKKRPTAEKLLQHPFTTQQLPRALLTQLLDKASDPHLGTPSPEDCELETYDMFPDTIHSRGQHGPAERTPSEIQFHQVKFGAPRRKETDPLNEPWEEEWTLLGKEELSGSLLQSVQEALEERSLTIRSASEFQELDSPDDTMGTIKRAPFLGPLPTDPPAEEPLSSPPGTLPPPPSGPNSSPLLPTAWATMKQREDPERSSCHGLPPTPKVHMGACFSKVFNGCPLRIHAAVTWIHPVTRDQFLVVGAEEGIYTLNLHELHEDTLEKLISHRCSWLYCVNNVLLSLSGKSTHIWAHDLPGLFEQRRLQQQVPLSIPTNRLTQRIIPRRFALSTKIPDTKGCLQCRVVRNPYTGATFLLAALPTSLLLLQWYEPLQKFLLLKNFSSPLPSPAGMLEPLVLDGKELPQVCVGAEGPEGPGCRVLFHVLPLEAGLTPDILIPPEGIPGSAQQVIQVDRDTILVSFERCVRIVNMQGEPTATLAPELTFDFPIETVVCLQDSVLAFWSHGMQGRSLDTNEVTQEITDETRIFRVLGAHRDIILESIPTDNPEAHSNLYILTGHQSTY
Chain of PIK3CA(Q546K) (P42336 whole entry Q546K): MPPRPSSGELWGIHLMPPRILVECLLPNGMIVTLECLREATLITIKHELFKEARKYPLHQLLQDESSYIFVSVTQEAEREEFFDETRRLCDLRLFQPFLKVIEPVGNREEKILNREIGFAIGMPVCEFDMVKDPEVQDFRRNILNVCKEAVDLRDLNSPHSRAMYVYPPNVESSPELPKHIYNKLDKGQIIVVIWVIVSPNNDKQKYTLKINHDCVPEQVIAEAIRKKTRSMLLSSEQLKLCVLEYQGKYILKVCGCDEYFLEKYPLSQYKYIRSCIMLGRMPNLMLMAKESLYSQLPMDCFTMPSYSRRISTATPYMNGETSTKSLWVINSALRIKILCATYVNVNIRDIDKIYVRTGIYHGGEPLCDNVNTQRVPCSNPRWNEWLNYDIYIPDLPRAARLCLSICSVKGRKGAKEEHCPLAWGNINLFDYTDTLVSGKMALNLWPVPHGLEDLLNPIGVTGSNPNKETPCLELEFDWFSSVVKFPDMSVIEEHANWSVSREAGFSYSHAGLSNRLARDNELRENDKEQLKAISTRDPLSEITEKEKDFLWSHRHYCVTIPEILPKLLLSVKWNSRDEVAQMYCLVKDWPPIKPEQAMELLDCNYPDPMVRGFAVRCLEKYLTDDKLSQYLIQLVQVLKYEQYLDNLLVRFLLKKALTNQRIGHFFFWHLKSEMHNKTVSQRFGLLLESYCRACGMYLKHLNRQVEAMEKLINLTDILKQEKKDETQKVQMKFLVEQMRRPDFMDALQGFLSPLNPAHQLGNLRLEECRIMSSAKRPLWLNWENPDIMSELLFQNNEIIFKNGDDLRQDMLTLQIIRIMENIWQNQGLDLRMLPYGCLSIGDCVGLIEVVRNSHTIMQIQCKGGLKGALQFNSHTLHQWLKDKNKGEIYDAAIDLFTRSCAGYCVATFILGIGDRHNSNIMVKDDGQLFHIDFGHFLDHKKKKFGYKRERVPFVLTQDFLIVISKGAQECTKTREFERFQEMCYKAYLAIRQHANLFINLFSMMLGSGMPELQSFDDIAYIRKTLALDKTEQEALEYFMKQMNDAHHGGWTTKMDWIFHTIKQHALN
T4 sequence (Q92918 whole entry): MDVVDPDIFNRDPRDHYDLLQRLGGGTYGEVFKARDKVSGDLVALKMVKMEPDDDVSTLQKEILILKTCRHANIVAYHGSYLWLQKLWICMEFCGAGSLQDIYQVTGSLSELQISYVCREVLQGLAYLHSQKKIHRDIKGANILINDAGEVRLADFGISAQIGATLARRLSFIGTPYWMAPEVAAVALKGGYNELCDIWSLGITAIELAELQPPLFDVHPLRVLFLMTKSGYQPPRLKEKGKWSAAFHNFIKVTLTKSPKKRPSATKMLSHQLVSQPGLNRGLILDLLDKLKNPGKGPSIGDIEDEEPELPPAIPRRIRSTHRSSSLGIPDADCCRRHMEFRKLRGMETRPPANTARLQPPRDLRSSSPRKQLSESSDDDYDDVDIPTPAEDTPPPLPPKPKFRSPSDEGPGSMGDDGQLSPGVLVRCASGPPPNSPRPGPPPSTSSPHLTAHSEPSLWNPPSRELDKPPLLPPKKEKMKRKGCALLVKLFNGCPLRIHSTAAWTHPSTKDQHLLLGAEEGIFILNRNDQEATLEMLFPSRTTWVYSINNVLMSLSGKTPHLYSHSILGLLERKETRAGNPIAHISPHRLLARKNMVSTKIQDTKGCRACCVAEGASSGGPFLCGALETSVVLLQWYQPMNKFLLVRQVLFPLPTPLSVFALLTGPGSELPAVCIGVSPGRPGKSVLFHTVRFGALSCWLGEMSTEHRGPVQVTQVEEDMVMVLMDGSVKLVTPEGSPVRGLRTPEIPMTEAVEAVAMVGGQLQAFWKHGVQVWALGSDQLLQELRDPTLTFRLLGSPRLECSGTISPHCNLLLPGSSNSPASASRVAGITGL
Chain of BRSK2 (Q8IWQ3 whole entry): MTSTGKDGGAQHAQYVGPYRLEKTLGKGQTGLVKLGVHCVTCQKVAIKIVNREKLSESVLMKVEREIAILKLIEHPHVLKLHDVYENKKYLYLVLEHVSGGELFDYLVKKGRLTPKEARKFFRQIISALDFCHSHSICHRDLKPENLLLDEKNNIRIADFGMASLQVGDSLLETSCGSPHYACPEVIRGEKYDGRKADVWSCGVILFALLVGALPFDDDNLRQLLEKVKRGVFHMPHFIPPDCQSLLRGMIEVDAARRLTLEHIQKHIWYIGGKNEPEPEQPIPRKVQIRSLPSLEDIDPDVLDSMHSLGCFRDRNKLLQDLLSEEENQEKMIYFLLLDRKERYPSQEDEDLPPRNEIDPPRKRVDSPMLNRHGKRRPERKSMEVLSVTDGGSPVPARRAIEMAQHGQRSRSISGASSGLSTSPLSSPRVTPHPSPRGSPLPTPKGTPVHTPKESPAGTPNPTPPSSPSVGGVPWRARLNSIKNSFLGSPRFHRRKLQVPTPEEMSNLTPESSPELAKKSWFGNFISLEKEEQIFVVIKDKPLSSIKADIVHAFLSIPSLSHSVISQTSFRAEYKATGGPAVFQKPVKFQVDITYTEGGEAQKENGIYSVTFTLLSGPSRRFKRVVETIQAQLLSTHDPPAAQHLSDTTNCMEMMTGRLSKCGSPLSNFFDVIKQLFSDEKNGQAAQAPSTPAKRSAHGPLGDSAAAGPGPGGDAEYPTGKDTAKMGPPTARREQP

`COc1ccc(-c2cnccc2-c2cnc(NC(=O)C(C)C)s2)c(C(F)(F)F)c1` [CRT0105446, N-{5-[3-(4-Methoxy-2-trifluoromethyl-phenyl)-pyridin-4-yl]-hiazol-2-yl}-isobutyramide]: the remaining binding at 10 µM at ADCK4 came to 85%; on AKT2, 100%; at BIKE, 100%; at BRSK2 it was 59%; on CDK4-cyclinD3 it was 48%; on CDKL1, 80%. Besides, the remaining binding at 10 µM at CSNK2A2 was found to be 91%; at DAPK2, 87%; at DYRK2 it was 81%; on EGFR(G719C) it was 89%; on EGFR(L861Q), 100%; on HPK1, 100%. In addition, the remaining binding at 10 µM was determined as 100% on LCK; 0.6% at MAK; 100% on MAP4K2; 69% at MERTK; 77% at MRCKA; 66% on PDGFRA. Moreover, the remaining binding at 10 µM at PDGFRB came out at 51%; on PIK3CA(Q546K), 100%; at PRKR, 81%; on SIK2 it was 78%; on p38-gamma, 100%.

For the compound `Cc1ccc(-c2cnccc2-c2cnc(Nc3ccc(O)cc3)s2)c(Cl)c1` [CRT0105950, 4-{5-[3-(2-Chloro-4-methyl-phenyl)-pyridin-4-yl]-thiazol-2-ylamino}-phenol], the remaining binding at 10 µM was found to be 58% on ADCK4; 100% at AKT2; 36% on BIKE; 33% on BRSK2; 13% on CDK4-cyclinD3; 77% on CDKL1. The remaining binding at 10 µM at CSNK2A2 amounted to 58%; at DAPK2, 53%; at DYRK2, 79%; on EGFR(G719C), 71%; on EGFR(L861Q), 65%; at HPK1, 22%. Moreover, the remaining binding at 10 µM on LCK came out at 20%; at MAK, 2%; on MAP4K2, 81%; at MERTK, 0.45%; at MRCKA, 84%; on PDGFRA, 48%. Besides, the remaining binding at 10 µM at PDGFRB was found to be 1.6%; at PIK3CA(Q546K) it was 100%; at PRKR, 53%; on SIK2, 7.1%; at p38-gamma, 100%.
